Measurements as given in the RepoRT retention time repository (doi:10.1016/j.aca.2011.01.006).

Assay: Waters SunFire C18, 150 × 2.1 mm, 3.5 µm, 35 °C, 0.3 mL/min, estimated dead time 1.1 min; A: water + 0.1% formic acid; B: acetonitrile + 0.1% formic acid; gradient (min/%B) 0/20 5/20 20/50 25/100
Conditions: stereoisomer not certain

| SMILES | LC retention time [min] |
| --- | --- |
| Cn1c(=O)c2[nH]cnc2n(C)c1=O | 1.9 |
| COc1cc(OC)c(C(=O)CCCN2CCCC2)c(OC)c1 | 2 |
| CC12C=CC(=O)C=C1CCC1C2C(=O)CC2(C)C1CCC2(O)C(=O)CO (configuration not stated) | 12.4 |
| CC1CC2C3CCC4=CC(=O)C=CC4(C)C3C(=O)CC2(C)C1(O)C(=O)CO (configuration not stated) | 15.1 |
| CCCCC1C(=O)N(c2ccccc2)N(c2ccccc2)C1=O | 24 |
| CCOC(=O)c1ccc(N)cc1 | 12.3 |
| CC12CCC(=O)C=C1C=CC1C2CCC2(C)C1CCC2(O)CCC(=O)O (configuration not stated) | 16.1 |
| O=C1CN(N=Cc2ccc(-c3ccc([N+](=O)[O-])cc3)o2)C(=O)N1 | 15.5 |
| COc1cc(CNC(=O)CCCCC=CC(C)C)ccc1O | 22.6 |
| COc1ccccc1OCC(O)CO (configuration not stated) | 5 |
| COc1cccc(C2(O)CCCCC2CN(C)C)c1 (configuration not stated) | 1.9 |
| COc1ccc2nc(S(=O)Cc3ncc(C)c(OC)c3C)[nH]c2c1 (configuration not stated) | 4.2 |
| CCC(=O)NS(=O)(=O)c1ccc(-c2c(-c3ccccc3)noc2C)cc1 | 21.8 |
| CC(C)[N+]1(C)C2CCC1CC(OC(=O)C(CO)c1ccccc1)C2 (configuration not stated) | 1.4 |
| CCCCCCCCC(=O)NCc1ccc(O)c(OC)c1 | 22.4 |
| CCCN(CCC)S(=O)(=O)c1ccc(C(=O)O)cc1 | 21.3 |
| COc1ccc2nc(S(=O)Cc3ncc(CO)c(OC)c3C)[nH]c2c1 (configuration not stated) | 2.7 |
| CCN(CCO)CCn1c(Cc2ccccc2)nc2c1c(=O)n(C)c(=O)n2C | 1.5 |
| CC12CCC(=O)C=C1C=CC1C2CCC2(C)C1CCC21CCC(=O)O1 (configuration not stated) | 22 |
| CC(C)c1c(CN(C)C(C)Cc2ccccc2)n(C)n(-c2ccccc2)c1=O (configuration not stated) | 10.8 |
| CN(C)CCCOc1nn(Cc2ccccc2)c2ccccc12 | 9.9 |
| CS(=O)(=O)c1ccc(C2=C(c3ccccc3)C(=O)OC2)cc1 | 16.8 |
| CN(C)CCOC(c1ccccc1)c1ccccc1 | 5.1 |
| COc1ccccc1OCC(O)COC(N)=O (configuration not stated) | 6.4 |
| COC(=O)C1CC2=CC(=O)CCC2(C)C23OC2CC2(C)C(CCC24CCC(=O)O4)C13 (configuration not stated) | 15.1 |
| CC(=O)CCCCn1c(=O)c2c(ncn2C)n(C)c1=O | 5.4 |

| SMILES | LC retention time [min] |
| --- | --- |
| CC(C)[N+](C)(CCOC(=O)C1c2ccccc2Oc2ccccc21)C(C)C | 9.8 |
| CCCCC1C(=O)N(c2ccccc2)N(c2ccc(O)cc2)C1=O (configuration not stated) | 19.8 |
| CC(C)[N+](C)(CCC(C(N)=O)(c1ccccc1)c1ccccc1)C(C)C | 3.4 |
| CC(C(=O)O)c1cccc(C(=O)c2ccccc2)c1 (configuration not stated) | 19.3 |
| CN(C)CCCN1c2ccccc2CCc2ccccc21 | 9.6 |
| CC1(C)OC2CC3C4CCC5=CC(=O)C=CC5(C)C4C(O)CC3(C)C2(C(=O)CO)O1 (configuration not stated) | 16.5 |
| CN1CC(O)c2cc(N=NC(N)=O)c(O)cc21 (configuration not stated) | 1.7 |
| CN(C)CCCN1c2ccccc2Sc2ccccc21 | 8.8 |
| CN1CCOC(c2ccccc2)c2ccccc2C1 (configuration not stated) | 2.9 |
| CC(=O)N=c1sc(S(N)(=O)=O)nn1C | 3.5 |
| Cc1cc(NC(=O)C2=C(O)c3ccccc3S(=O)(=O)N2C)no1 | 21.4 |
| O=C(c1ccccc1)c1ccc2n1CCC2C(=O)O (configuration not stated) | 16.3 |
| CCN(CC)CCOCCOC(=O)C1(c2ccccc2)CCCC1 | 10 |
| COC(=O)C(c1ccccc1)C1CCCCN1 (configuration not stated) | 1.8 |
| CC(=O)Nc1nnc(S(N)(=O)=O)s1 | 2.3 |
| Nc1nc(N)c2nc(-c3ccccc3)c(N)nc2n1 | 2.9 |
| Cn1c(=O)c2c(ncn2CC(O)CO)n(C)c1=O (configuration not stated) | 1.9 |
| CCCCNc1ccc(C(=O)OCCN(C)C)cc1 | 4.9 |
| CCCCN1CCCCC1C(=O)Nc1c(C)cccc1C (configuration not stated) | 2.9 |
| CCCn1cnc2c1c(=O)n(CCCCC(C)=O)c(=O)n2C | 12.1 |
| O=C1NC(=O)N(N=Cc2ccc(-c3ccc([N+](=O)[O-])cc3)o2)C1O (configuration not stated) | 15.2 |
| CN(C)CCN(Cc1ccccc1)c1ccccn1 | 1.9 |
| CCOC(=O)C1(c2ccccc2)CCN(C)CC1 | 2.2 |
| CCC1(O)CCC2C3CCC4=CC(=O)CCC4=C3C=CC21CC (configuration not stated) | 22.9 |
| Cc1cccc(C(C)c2cnc[nH]2)c1C (configuration not stated) | 2.8 |
| Cn1cnc2c1c(=O)[nH]c(=O)n2C | 2 |

| SMILES | LC retention time [min] |
| --- | --- |
| Cc1cc(=O)n(-c2ccccc2)n1C | 4.1 |
| CCCC(Cc1ccccc1)N1CCCC1 (configuration not stated) | 2.9 |
| Oc1ccc2c(c1)C13CCCCC1(O)C(C2)N(CC1CCC1)CC3 (configuration not stated) | 2.5 |
| CCCCOc1cc(C(=O)OCCN(CC)CC)ccc1N | 4.2 |
| CN(C)CCC=C1c2ccccc2CCc2ccccc21 | 10.3 |
| O=C1NC(=O)C(c2ccccc2)(c2ccccc2)N1 | 14.7 |
| C[N+]1(C)CCCC(OC(=O)C(O)(c2ccccc2)c2ccccc2)C1 (configuration not stated) | 3 |
| Cn1c(=O)c2c(ncn2C)n(C)c1=O | 2.4 |
| CC[N+](C)(CC)CCOC(=O)C(O)(c1ccccc1)C1CCCCC1 (configuration not stated) | 9 |
| CCN(CC)CCOC(=O)C(Cc1cccc2ccccc12)CC1CCCO1 (configuration not stated) | 11.1 |
| Cc1cccc(C)c1NC1=NCCCS1 | 1.8 |
| CN1C2CCC1C(C(=O)O)C(OC(=O)c1ccccc1)C2 (configuration not stated) | 2.6 |
| CC(C)(C)C(=O)SCC(=O)C1(O)CCC2C3CCC4=CC(=O)CCC4(C)C3C(O)CC21C (configuration not stated) | 24 |
| CCN(CC)C(=O)c1cccnc1 | 2.4 |
| CC(=O)SC1CC2=CC(=O)CCC2(C)C2CCC3(C)C(CCC34CCC(=O)O4)C12 (configuration not stated) | 22 |
| C[N+]12CCC(CC1)C(OC(=O)C(O)(c1ccccc1)c1ccccc1)C2 (configuration not stated) | 3.4 |
| Cn1c(=O)c2c(ncn2CCO)n(C)c1=O | 2 |
| CN1C(C(=O)Nc2ccccn2)=C(O)c2sccc2S1(=O)=O | 9 |
| CN1C(C(=O)Nc2ccccn2)=C(O)c2ccccc2S1(=O)=O | 15.2 |
| Cc1cccc(C)c1NC(=O)C1CCCCN1C (configuration not stated) | 1.8 |
| Cc1c(NC=O)c(=O)n(-c2ccccc2)n1C | 2.6 |
| C=CCC1(O)CCC2C3CCC4=CC(=O)CCC4=C3C=CC21C (configuration not stated) | 22.1 |
| C[N+]1(CCC(O)(c2ccccc2)c2cccs2)CCOCC1 (configuration not stated) | 2.2 |
| CCCC1OC2CC3C4CCC5=CC(=O)C=CC5(C)C4C(O)CC3(C)C2(C(=O)CO)O1 (configuration not stated) | 20.1 |
| CCCCCc1cc(O)c2c(c1)OC(C)(C)C1CCC(C(=O)O)=CC21 (configuration not stated) | 25.1 |
| CCCc1nn(C)c2c(=O)[nH]c(-c3cc(S(=O)(=O)N4CCN(C)CC4)ccc3OCC)nc12 | 8.2 |

| SMILES | LC retention time [min] |
| --- | --- |
| CCCC[N+]1(C)C2CC(OC(=O)C(CO)c3ccccc3)CC1C1OC12 (configuration not stated) | 2.3 |
| CN1CC(=O)N2C(Cc3c([nH]c4ccccc34)C2c2ccc3c(c2)OCO3)C1=O (configuration not stated) | 17.4 |
| COc1ccc(CCN(C)CCCC(C#N)(c2ccc(OC)c(OC)c2)C(C)C)cc1OC (configuration not stated) | 10.6 |
| Cc1onc(-c2ccccc2)c1-c1ccc(S(N)(=O)=O)cc1 | 18.5 |
| CCC1(c2ccccc2)C(=O)NCNC1=O | 4.3 |
| CC1CC2C(C(O)CC3(C)C2CCC3(O)C(=O)CO)C2(C)C=CC(=O)C=C12 (configuration not stated) | 14.6 |
| CC12C=CC(=O)C=C1CCC1C2C(O)CC2(C)C1CCC2(O)C(=O)CO (configuration not stated) | 12.3 |
| CC[N+]1(CC)CCC(=C(c2ccccc2)c2ccccc2)C1C (configuration not stated) | 9.6 |
| Cc1cccc(Nc2ccncc2S(=O)(=O)NC(=O)NC(C)C)c1 | 8.5 |
| CC[N+]1(C)CCCC(OC(=O)C(O)(c2ccccc2)c2ccccc2)C1 (configuration not stated) | 3.4 |
| CCN(CC)CC(=O)Nc1c(C)cccc1C | 1.8 |
| CC1(C)OC(=O)C(OCC2CC2)=C1c1ccc(S(C)(=O)=O)cc1 | 20.4 |
| CCC1(c2ccccc2)C(=O)NC(=O)NC1=O | 4.9 |
| CS(=O)(=O)Nc1ccc([N+](=O)[O-])cc1Oc1ccccc1 | 21.9 |
| Cn1c(=O)c2c(ncn2CC(=O)O)n(C)c1=O | 2.42 |
| COc1ccc(CN(CCN(C)C)c2ccccn2)cc1 | 2 |
| CC12CCC(=O)C=C1CCC1C2C(O)CC2(C)C1CCC2(O)C(=O)CO (configuration not stated) | 12.6 |
| CCC1(c2cnc[nH]2)Cc2ccccc2C1 | 3 |
| N=C1NC(=O)C(c2ccccc2)O1 (configuration not stated) | 3.4 |
| CN1C(C(=O)Nc2ccc(O)cn2)=C(O)c2ccccc2S1(=O)=O | 15.8 |
| CC(=O)c1ccc2c(c1)N(CCCN(C)C)c1ccccc1S2 | 8.7 |
| CC(C)(C)NCC(O)COc1nsnc1N1CCOCC1 (configuration not stated) | 1.8 |
| CCCc1nc(C)c2c(=O)[nH]c(-c3cc(S(=O)(=O)N4CCN(CC)CC4)ccc3OCC)nn12 | 3.4 |
| CCCCNc1cc(C(=O)O)cc(S(N)(=O)=O)c1Oc1ccccc1 | 20.7 |
